Assay results from publication PMC10877733, “Discovery and Characterization of VU0542270, the First Selective Inhibitor of Vascular Kir6.1/SUR2B KATP Channels” (Molecular Pharmacology, 2024).
“Also recorded” adds a separate entry of the source. Like-named read-outs stand apart in the source and are kept apart here.

Tests used:
[1] = tested on: isolated mouse ductus arteriosus vessels; test: Pressure myography of isolated ductus arteriosus vessels; settings: term gestation mouse DA
Description: CD-1 mice were maintained at Vanderbilt University Medical Center in accordance with protocols approved by the Institutional Animal Care and Use Committee. Timed matings were performed to produce offspring at specific stages of development. The presence of a vaginal plug was designated as embryonic day 1.
Term-gestation (embryonic day 19) fetal mouse DAs were isolated and mounted on glass pipet tips in microvessel perfusion chambers as previously reported ([Hooper et al., 2016]). Deoxygenated Krebs buffer was warmed to 37°C and circulated throughout the chamber. Vessels were pressurized in a stepwise manner to physiologic neonatal mouse mean arterial pressure (20 mmHg) and then challenged with 50 mM KCl to test reactivity. […] For dose-response studies, vessels were first dilated by circulating Krebs buffer bubbled with 95% nitrogen, 5% CO2 to mimic the hypoxic conditions of the womb. […] Following each dose, lumen diameters were allowed to plateau (approximately 20 minutes) before the next dose was added. Continuous lumen diameter measurements were recorded using a digital image capture system (IonOptix). An N of >6 vessels from at least three different litters was used for each experimental condition. Changes in lumen diameter are represented as the percent change in diameter compared with the baseline lumen diameter of vessels prior to drug exposure. […] Values represent mean ± S.D.

Kir6.1/SUR2B = target: T1, Kir6.1/SUR2B (Homo sapiens, UniProt O60706); test: Thallium flux assay of Kir6.1/SUR2B in HEK293 cells; format: cell-based
T1 construct: expressed in transfected cells; also transiently transfected HEK293T
Excerpt: The pcDNA3.1-SUR2B plasmid was generously provided by Dr. Colin Nichols (Washington University). […] Stably transfected tetracycline-regulated expression human embryonic kidney-293 (T-Rex-HEK293) cells expressing both plasmids were generated by cotransfecting cells with Lipofectamine LTX followed by antibiotic selection and clonal selection using the thallium flux assay described below. […] The cell culture media contained Dulbecco's modified Eagle's medium (Gibco, 11965-092) supplied with heat-inactivated FBS (bio-techne, Minneapolis, MN […],10%), Blasticidine HCl (Gibco, A11139-03, 10 ug/mL), Penicillin-Streptomycin (Gibco, 15140-122, 2 mM), G418 Sulfate (CORNING, Corning, NY, 30-234-CR, 1 mg/mL), and Hygromycin B (Invitrogen, Carlsbad, CA, 10687-010, 250 ug/mL). For selectivity assays, HEK293T cells were cotransfected with Kir6.x and SURX with Lipofectamine LTX and incubated for 48 hours before thallium flux assays. […] [[…] et al., 2019]). […] Dye-loaded cells were washed with assay buffer and transferred to a Panoptic Kinetic Imaging Plate Reader (Wavefront Bioscience, Franklin, TN). Control and test compound treatments were for 4 minutes prior to adding 0.5 mM chloride-free thallium stimulus buffer (Ion Bioscience) to initiate thallium flux. […] Selectivity assays against other Kir channels were performed essentially as described previously ([[…] et al., 2018]; [[…] al., 2022]). […] Data were acquired using Panoptic Software, Waveguide (Wavefront Biosciences). Raw fluorescence values were imported for analysis into custom software (VICB, Vanderbilt University). Fluorescence versus time values for each well were normalized to the initial fluorescence value [F/F0]. […] CRC data were plotted in GraphPad Prism (GraphPad Software, San Diego, CA) and fitted with a four-parameter logistic model to determine IC50 values for rank-ordering hit potency.

Kir2.1 = target: T2, Kir2.1 (Homo sapiens, UniProt P63252); test: Thallium flux selectivity assay Kir2.1; format: cell-based
T2 construct: expressed in transfected cells
T2 sequence (P63252 1-427): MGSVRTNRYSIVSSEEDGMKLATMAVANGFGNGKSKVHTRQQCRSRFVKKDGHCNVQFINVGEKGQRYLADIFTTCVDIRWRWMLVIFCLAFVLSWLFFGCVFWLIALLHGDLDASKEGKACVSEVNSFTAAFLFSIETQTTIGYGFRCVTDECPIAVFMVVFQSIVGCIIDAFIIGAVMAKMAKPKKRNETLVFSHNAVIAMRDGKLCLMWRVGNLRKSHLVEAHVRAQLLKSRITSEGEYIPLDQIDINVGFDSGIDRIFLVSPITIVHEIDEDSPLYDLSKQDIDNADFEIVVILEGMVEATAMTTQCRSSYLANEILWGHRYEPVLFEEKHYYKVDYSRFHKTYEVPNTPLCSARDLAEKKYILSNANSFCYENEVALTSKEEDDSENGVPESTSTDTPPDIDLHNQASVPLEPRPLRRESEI
Description: Quantitative thallium flux assays of Kir6.1/SUR2B activity were performed essentially as described previously for Kir6.2/SUR1 ([Raphemot et al., 2014]; [Kharade et al., 2019]). Stable T-Rex-HEK293-Kir6.1/SUR2B cells or transiently transfected HEK293T cells were plated in polyamine-coated, clear-bottomed, black-walled 384-well plates and were cultured (37°C/5% CO2) overnight in Dulbecco’s modified Eagle’s medium (Gibco, Carlsbad, CA, 11995-065) containing 10% FBS (2 mM Penicillin-Streptomycin). The following day, cells were washed with assay buffer (i.e., Hanks’ balanced salt solution/20 mM HEPES) and loaded for 1 hour with thallium sensor dye Brilliant Thallium (Ion Bioscience, San Marcos, TX) at room temperature. Dye-loaded cells were washed with assay buffer and transferred to a Panoptic Kinetic Imaging Plate Reader (Wavefront Bioscience, Franklin, TN). Control and test compound treatments were for 4 minutes prior to adding 0.5 mM chloride-free thallium stimulus buffer (Ion Bioscience) to initiate thallium flux. […] Selectivity assays against other Kir channels were performed essentially as described previously ([Kharade et al., 2018]; [McClenahan et al., 2022]).

T1 sequence (O60706 1-1549 isoform O60706-2, species assumed): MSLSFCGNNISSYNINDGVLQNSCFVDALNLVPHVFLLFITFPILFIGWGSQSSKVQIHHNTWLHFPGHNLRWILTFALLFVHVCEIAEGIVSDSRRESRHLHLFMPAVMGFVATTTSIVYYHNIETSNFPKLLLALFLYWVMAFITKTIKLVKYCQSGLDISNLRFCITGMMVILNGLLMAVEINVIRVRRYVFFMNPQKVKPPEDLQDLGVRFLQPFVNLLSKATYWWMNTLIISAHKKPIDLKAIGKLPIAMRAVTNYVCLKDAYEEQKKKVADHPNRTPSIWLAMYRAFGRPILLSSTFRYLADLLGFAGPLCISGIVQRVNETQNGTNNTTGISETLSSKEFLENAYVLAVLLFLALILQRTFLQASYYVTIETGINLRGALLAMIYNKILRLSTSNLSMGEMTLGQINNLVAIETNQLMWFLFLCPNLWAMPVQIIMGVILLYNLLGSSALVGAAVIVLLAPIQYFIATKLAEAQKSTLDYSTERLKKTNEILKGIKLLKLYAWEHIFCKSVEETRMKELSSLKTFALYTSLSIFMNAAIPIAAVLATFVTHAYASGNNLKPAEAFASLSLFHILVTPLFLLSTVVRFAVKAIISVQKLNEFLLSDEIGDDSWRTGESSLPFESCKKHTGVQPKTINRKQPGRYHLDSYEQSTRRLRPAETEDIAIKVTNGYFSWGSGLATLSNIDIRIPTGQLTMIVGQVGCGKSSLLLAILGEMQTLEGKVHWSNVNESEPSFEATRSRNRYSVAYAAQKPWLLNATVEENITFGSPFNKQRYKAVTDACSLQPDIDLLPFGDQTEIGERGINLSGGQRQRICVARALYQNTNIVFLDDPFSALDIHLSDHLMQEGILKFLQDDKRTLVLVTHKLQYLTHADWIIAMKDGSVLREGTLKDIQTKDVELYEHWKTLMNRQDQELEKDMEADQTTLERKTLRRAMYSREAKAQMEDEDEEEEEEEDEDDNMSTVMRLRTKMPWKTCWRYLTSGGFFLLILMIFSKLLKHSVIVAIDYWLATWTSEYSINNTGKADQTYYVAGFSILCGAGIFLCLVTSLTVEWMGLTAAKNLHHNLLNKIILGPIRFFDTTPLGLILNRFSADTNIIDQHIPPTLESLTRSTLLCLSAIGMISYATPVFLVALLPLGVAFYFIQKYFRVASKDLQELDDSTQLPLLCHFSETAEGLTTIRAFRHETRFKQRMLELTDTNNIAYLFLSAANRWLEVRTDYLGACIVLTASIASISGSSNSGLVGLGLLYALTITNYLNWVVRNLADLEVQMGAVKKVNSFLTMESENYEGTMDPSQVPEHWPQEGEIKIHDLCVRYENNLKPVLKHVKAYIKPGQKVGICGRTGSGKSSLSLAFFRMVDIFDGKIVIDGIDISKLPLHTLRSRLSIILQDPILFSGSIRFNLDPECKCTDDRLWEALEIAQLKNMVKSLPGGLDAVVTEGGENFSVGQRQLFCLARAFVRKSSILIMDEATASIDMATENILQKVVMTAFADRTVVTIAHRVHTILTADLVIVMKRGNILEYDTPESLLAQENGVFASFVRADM
T1 sequence (Q15842 whole entry partner, species assumed): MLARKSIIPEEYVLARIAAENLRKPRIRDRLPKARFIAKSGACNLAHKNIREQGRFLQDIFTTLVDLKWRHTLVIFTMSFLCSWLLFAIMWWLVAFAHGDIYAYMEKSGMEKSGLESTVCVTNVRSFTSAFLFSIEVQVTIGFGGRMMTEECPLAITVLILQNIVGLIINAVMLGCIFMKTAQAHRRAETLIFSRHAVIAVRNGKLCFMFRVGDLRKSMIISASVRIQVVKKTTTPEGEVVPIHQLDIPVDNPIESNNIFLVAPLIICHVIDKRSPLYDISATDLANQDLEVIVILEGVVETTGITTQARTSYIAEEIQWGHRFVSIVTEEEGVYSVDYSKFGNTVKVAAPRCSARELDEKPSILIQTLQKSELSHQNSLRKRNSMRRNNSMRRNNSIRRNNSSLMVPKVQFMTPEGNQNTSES

With `Cc1nc(-c2cccs2)sc1CNC(=O)Nc1cccs1` [VU0542270] the “ductus arteriosus vessel constriction” value ([1]; increasing concentrations, compound alone) was “induced ductus arteriosus constriction in a dose-dependent manner; also recorded: constricted in a concentration-dependent manner”, the “ductus arteriosus vessel constriction in the presence of pinacidil” value ([1]; with 10 µM pinacidil) was “substantially blunted vasoconstrictive effects” and the IC50 (Kir6.1/SUR2B; Table 1 selectivity profile, read-out: IC50 Kir6.1/SUR2B) was 110 nM. It also gave an IC50 (Kir6.1/SUR2B; pinacidil-activated, read-out: Kir6.1/SUR2B IC50) of 104 nM, an IC50 (Kir6.1/SUR2B; transfected HEK-293 cells, pinacidil activation, read-out: Kir6.1/SUR2B IC50 (Fig. 4C)) of 129 nM and an IC50 (Kir2.1) of over 30000 nM.
